Literature values, collected in patent US20210393580A1, “PROCYANIDINS FOR THE TREATMENT OF ENDOTHELIAL DYSFUNCTION TRIGGERED BY COVID-19” (priority 2020, published 2021).

Columns and labels:
[1] = tested on: SARS proteases, spike protein and nonstructural proteins (NSP-9, 15); conditions: Autodock vina; hydrogen bonds with active site residues, low binding energy
[2] = tested on: iNOS (inducible nitric oxide synthase)
[3] = tested on: wild-type severe acute respiratory syndrome coronavirus (wtSARS-CoV); conditions: compounds fractionated from CC; for IC50: read-out: IC50, anti-wtSARS-CoV activity

Row | SMILES | interaction with the SARS viral proteins [1] | other results
1 | Cc1cc(O)c(C(C)C)cc1O [thymohydroquinone] | significant interaction | –
2 | COc1cc(/C=C/C(=O)O)ccc1O [ferulic acid] | significant interaction | –
3 | O=C1CCC(Cc2ccc(O)c(O)c2)O1 (stereo not drawn) [M1, δ-(3,4-dihydroxy-phenyl)-γ-valerolactone] | – | excessive nitrite production [2]: reducing; iNOS expression [2]: reducing iNOS (inducible nitric oxide synthase) expression
4 | Oc1cc(O)c2c(c1)O[C@H](c1ccc(O)c(O)c1)[C@H](O)[C@H]2c1c(O)cc(O)c2c1O[C@H](c1ccc(O)c(O)c1)[C@@H](O)C2 [procyanidin B1] | – | SI, anti-wtSARS-CoV activity [3]: 15.69; IC50 [3]: 41.3 ± 3.4 µM
5 | O=c1c(-c2ccc(O)cc2)coc2cc(O)cc(O)c12 [genistein] | significant interaction | –
6 | CC(C)c1cc2c(c(O)c1O)[C@@]13CCCC(C)(C)[C@@H]1[C@H](OC3=O)[C@H]2O [rosmanol] | significant interaction | –
7 | Oc1cc(O)c2c(c1)O[C@@]1(c3ccc(O)c(O)c3)Oc3cc(O)c4c(c3[C@@H]2[C@H]1O)O[C@H](c1ccc(O)c(O)c1)[C@H](O)C4 [procyanidin A2] | – | SI, anti-wtSARS-CoV activity [3]: 37.35; IC50 [3]: 29.9 ± 3.3 µM
8 | Oc1ccc(C=Cc2cc(O)cc(O)c2)cc1 [resveratrol] | significant interaction | –
9 | CCc1oc(=O)c(Cc2c(O)c(CC=C(C)C)c(O)c(C(C)=O)c2O)c(O)c1C [arzanol] | significant interaction | –
